This note sets out measurements from US5606037A, “Processes antineoplastic heteronaphthoquinones” (BioChem Pharma Inc., priority 1995, dated 1997).

Counter-ions that a name gives are not always drawn.

What all share (type): cell-based, Human
The subject of one assay is Lox (Melanoma). Briefly: In vitro cytotoxicity, microculture tetrazolium (MTT) assay, LOX. The conditions noted are these: 48 h with compound, further 48 h, Table 1. On the procedure:
(§1) The microculture tetrazolium assay was used to test in vitro cytotoxicity. This assay is described in Plumb, J. A. et al., 1989 Cancer Research 49, 4435-4440, which is herein incorporated by reference. The cytotoxicity of compounds towards tumor cells is measured in vitro using the assay. This assay method is based upon the ability of live, but not dead cells to reduce the yellow water soluble dye 3-(4,5-dimethylthiazol-2-yl)-2,5-diphenyltetrazolium bromide (MTT) to its water insoluble purple formazan product.
(§2) Human Tumor Cell lines, used were:
Lox (Melanoma)--Southern Research Institute.
(§3) The cells were maintained in exponential growth in culture in minimal essential media (MEM) supplemented with non-essential amino acids, and containing 15% (v/v) fetal. bovine serum, 5 mM L-glutamine, 1 mM sodium pyruvate, and 0.1 U/ml insulin. All cell lines were grown at 37° C. in an atmosphere of 5% CO2 in air.
(§4) MTT: 2 mg/ml in phosphate buffered saline (stable at 4° C. in dark for 1 week).
(§5) Sorensen's buffer: 0.1M glycine/NaOH, pH 10.5, containing 0.1M NaCl.
(§6) Test compounds: 20 mM in DMSO and diluted to a final concentration of 200 μM in culture medium before use.
(§7) For each assay, doxorubicin is included as an inter-assay standard. This allows us to monitor the behaviour of the assay in general, and in particular, to check that the SKVLB line has maintained its resistant phenotype.
(§8) The assays are carried out in 96-well (8 well×12 well) microtiter plates. Serial dilutions of the compound are tested along the length of the plate. A 1:3 serial dilution of compound in culture medium covers a concentration range from 100 μM to 1.7 nM. Each concentration of compound is tested in quadruplet, allowing two compounds to be tested per plate. Wells containing no cells (blank) and cells with no test compound (control) are included on each plate.
(§9) Cells are plated out in 100 μl of culture medium in the microtiter plates at a density of around 1,500-4,000 cells per well. The plates are incubated overnight to allow the cells to become adherent after which the test compound is added (100 μl of appropriate dilution per well). The cells are incubated with test compound at 37° C. for 48 h after which the compound is replaced with fresh medium. After a further 48 h incubation at 37° C., 50 μl of MTT solution (2 mg/ml) is added to each well. The plates are incubated in the dark for 4 h at 37° C. after which the medium is removed. The MTT formazan product is extracted from the cells by the addition of 200 μl DMSO followed by 50 μl of Sorensen's buffer. The plates are shaken briefly and the absorbance at 570 nm is read using a Molecular Devices UV max plate reader. Curves are fit to the MTT assay data using a four parameter logistic equation, and the data are normalized to fit a 0% to 100% survival scale.

Assay [1] concerns SKOV3 (Ovarian adenocarcinoma). Briefly: In vitro cytotoxicity, microculture tetrazolium (MTT) assay, SKOV3. The conditions noted are these: SKOV3 ovarian adenocarcinoma, 48 h with compound, further 48 h, MTT, Table 1. The procedure: as §1, §2
SKOV3 (Ovarian adenocarcinoma)--provided by Dr. V. Ling, Ontario Cancer Institute.
as §3, §4, §5, §6, §7, §8, §9

In assay [2] the test system is HT 29 (Colon adenocarcinoma). Put plainly: In vitro cytotoxicity, microculture tetrazolium (MTT) assay, HT29. The conditions noted are these: further 48 h, Table 1. The procedure: as §1, §2
HT 29 (Colon adenocarcinoma) ATCC catalog #HTB-38.
as §3, §4, §5, §6, §7, §8, §9

For assay [3], the system named is SKVLB (Ovarian; multidrug resistant). Put plainly: In vitro cytotoxicity, microculture tetrazolium (MTT) assay, SKVLB. The conditions noted are these: Homo sapiens; SKVLB multidrug resistant ovarian; 48 h with compound, further 48 h, MTT; Table 1. On the procedure: as §1, §2
SKVLB (Ovarian; multidrug resistant)--Dr. V. Ling, Ontario Cancer Institute.
as §3, §4, §5, §6, §7, §8, §9

Assay [4] relates to T47D (Ductal carcinoma of breast). Briefly: In vitro cytotoxicity, microculture tetrazolium (MTT) assay, T47D. The conditions noted are these: 48 h with compound, further 48 h, Table 1. The procedure:
as §1, §2
T47D (Ductal carcinoma of breast)--ATCC catalog #HTB-133.
as §3, §4, §5, §6, §7, §8, §9

Setting [5] is: Homo sapiens, HT-29, 48 h with compound.

The IC50 is the concentration needed to halve the response being measured. For the compound `COC(=O)[C@@H](N)COC1OC(C(C)=O)CC2=C1C(=O)c1ccccc1C2=O` (mixture of isomers) [BCH1654, (1S, 2'S, 3R) and (1R, 2'S, 3S)-methyl-(1-[O-serinemethyl ester]-5,10-dioxo-3,4,5,10-tetrahydronaphtaleno[2,3-C]pyran-3-yl) ketone hydrochloride], the IC50 with Lox (Melanoma) (Homo sapiens) was 1190 nM; in assay [1] (Homo sapiens, SK-OV-3), 710 nM; in assay [2] (setting [5]), 3580 nM; in assay [3], 3730 nM; in assay [4] (Homo sapiens) it was 1590 nM.

On to `CC(=O)C1CC2=C(C(=O)c3ccccc3C2=O)C(O[C@H]2C[C@H](O)[C@H](O)[C@H](C)O2)O1` (mixture of isomers) [BCH2117, (1'S,1S,3R) and (1'S,1R,3S)-methyl-(1-[dideoxy-2',6'-dihydroxy-3',4'-L-lyxohexopyranose]-5,10-dioxo-3,4,5,10-tetrahydronaphtho-[2,3-c]-pyran-3-yl) ketone], for which the 50% inhibitory concentration (IC50) in the assay on Lox (Melanoma) (Homo sapiens) amounted to 73 nM; in assay [1] (Homo sapiens, SK-OV-3) it was 9.5 nM; in assay [2] (setting [5]), 30 nM; in assay [4] (Homo sapiens), 37.4 nM.

As for `CO[C@@H]1O[C@H](C(=O)O)CC2=C1C(=O)c1ccccc1C2=O` (relative stereo) [BCH2119, (1,3-cis)-1-methoxy-3-carboxyl-5,10-dioxo-3,4,5,10-tetrahydro-1H-naphtho-[2,3-c]-pyran], the IC50 was above 100000 nM in assay [1] (Homo sapiens, SK-OV-3); above 100000 nM in assay [2] (setting [5]); above 100000 nM in assay [3]; above 100000 nM in assay [4] (Homo sapiens).

Take `C=C(C)[C@H]1CC2=C(C(=O)c3ccccc3C2=O)[C@H](OC)O1` (relative stereo) [BCH2148, (trans)-5,10-dioxo-3-isopropenyl-1-methoxy-3,4,5,10-tetrahydro-1H-naphtho-[2,3-c]-pyran]: the IC50 in assay [1] (Homo sapiens, SK-OV-3) worked out at 12600 nM; in assay [2] (setting [5]) it was 7500 nM; in assay [3], 9930 nM; in assay [4] (Homo sapiens), 2360 nM.

As to `C=CCC1CC2=C(C(=O)c3ccccc3C2=O)C(OC2CC(NC(=O)C(F)(F)F)C(O)C(C)O2)O1` (stereo not shown) [BCH1648], the IC50 was 138 nM in the assay with Lox (Melanoma) (Homo sapiens); 51.9 nM in assay [1] (Homo sapiens, SK-OV-3); 309 nM in assay [2] (setting [5]); 360 nM in assay [4] (Homo sapiens).

As for `CC(NC(=O)C(F)(F)F)[C@H]1CC2=C(C(=O)c3ccccc3C2=O)[C@H](O[C@H]2C[C@H](O)[C@H](O)[C@H](C)O2)O1` (stereo partly drawn) [BCH2018, (1'S,1S,3R)-3-(trifluoroacetamidoethyl)-5,10-dioxo-1-(2',3',6'-trideoxy-3',4'-dihydroxy-L-lyxohexopyranose)-3,4,5,10-tetrahydro-1H-naphtho-[2,3-c]-pyran], the IC50 in the assay on Lox (Melanoma) came out at 2380 nM; in assay [1], 3110 nM; in assay [2] (48 h with compound), 14200 nM; in assay [4], 8560 nM.

Turning to `CC(=O)[C@H]1CC2=C(C(=O)c3ccccc3C2=O)[C@H](O[C@H]2C[C@H](NC(=O)C(F)(F)F)[C@H](OC(=O)CBr)[C@H](C)O2)O1` [BCH2105, (1'-S, 1-S, 3-R)-methyl-(1-[2',3',4',6' tetradeoxy-3'-trifluoroacetamido-4'-O-(2-bromo-acetyl)-L-lyxopyranose]-5, 10-dioxo-3,4,5,10 tetrahydronaphtho-[2,3-c]pyran-3-yl) ketone], the IC50 came to 25 nM in the assay on Lox (Melanoma) (Homo sapiens); 3 nM in assay [1] (Homo sapiens, SK-OV-3); 6.9 nM in assay [2] (setting [5]); 19 nM in assay [4] (Homo sapiens).

`COC1OC(C(=O)NCCCn2ccnc2)=CC2=C1C(=O)c1ccccc1C2=O` (stereo not shown) [BCH2157, (3-N-hydrochloroimidazolylpropyl)-1-methoxy-5,10-dioxo-5,10-dihydro-1H-naphtho-[2,3-c]-pyran-3-carboxamide]: the IC50 in the assay with Lox (Melanoma) worked out at 15.5 nM; in assay [1], 187 nM; in assay [2] (48 h with compound), 1230 nM; in assay [4] it was 233 nM.

Take `CCCC1OC(C(=O)NCCCN(C)C)=CC2=C1C(=O)c1ccccc1C2=O` (stereo not shown) [BCH2168, 1-propyl-3-(3-dimethylaminopropylaminocarbonyl)-5,10-dihydro-5,10-dioxo-1H-naphtho-[2,3-c]-pyran]: the IC50 in assay [1] (Homo sapiens, SK-OV-3) is 180 to 276 nM; in assay [2] (setting [5]), 393 to 1200 nM; in assay [3] it was 980 nM; in assay [4] (Homo sapiens), 573 nM.
